Experimental findings from US8778941B2, “TRPM8 antagonists and their use in treatments” (AMGEN Inc., priority 2011, dated 2014) are described below.

The structures appear in SMILES notation.

The target of this assay is T1, human TRPM8 (Homo sapiens, UniProt Q7Z2W7).
T1 construct: expressed in transfected cells; host or cells: Chinese hamster ovary (CHO) cells, T-REx tetracycline-inducible expression system (Invitrogen), co-transfected with pcDNA3.1 jellyfish aequorin
Description: Luminescence readout assay for measuring intracellular calcium (aequorin), hTRPM8 antagonism. The class given is cell-based. As to conditions: CHO cell line expressing human TRPM8 and aequorin; activation by icilin, L-menthol or cold buffer (table does not say which).

As usually defined, the IC50 is the concentration at which inhibition is half-maximal.

T1 sequence (Q7Z2W7 whole entry): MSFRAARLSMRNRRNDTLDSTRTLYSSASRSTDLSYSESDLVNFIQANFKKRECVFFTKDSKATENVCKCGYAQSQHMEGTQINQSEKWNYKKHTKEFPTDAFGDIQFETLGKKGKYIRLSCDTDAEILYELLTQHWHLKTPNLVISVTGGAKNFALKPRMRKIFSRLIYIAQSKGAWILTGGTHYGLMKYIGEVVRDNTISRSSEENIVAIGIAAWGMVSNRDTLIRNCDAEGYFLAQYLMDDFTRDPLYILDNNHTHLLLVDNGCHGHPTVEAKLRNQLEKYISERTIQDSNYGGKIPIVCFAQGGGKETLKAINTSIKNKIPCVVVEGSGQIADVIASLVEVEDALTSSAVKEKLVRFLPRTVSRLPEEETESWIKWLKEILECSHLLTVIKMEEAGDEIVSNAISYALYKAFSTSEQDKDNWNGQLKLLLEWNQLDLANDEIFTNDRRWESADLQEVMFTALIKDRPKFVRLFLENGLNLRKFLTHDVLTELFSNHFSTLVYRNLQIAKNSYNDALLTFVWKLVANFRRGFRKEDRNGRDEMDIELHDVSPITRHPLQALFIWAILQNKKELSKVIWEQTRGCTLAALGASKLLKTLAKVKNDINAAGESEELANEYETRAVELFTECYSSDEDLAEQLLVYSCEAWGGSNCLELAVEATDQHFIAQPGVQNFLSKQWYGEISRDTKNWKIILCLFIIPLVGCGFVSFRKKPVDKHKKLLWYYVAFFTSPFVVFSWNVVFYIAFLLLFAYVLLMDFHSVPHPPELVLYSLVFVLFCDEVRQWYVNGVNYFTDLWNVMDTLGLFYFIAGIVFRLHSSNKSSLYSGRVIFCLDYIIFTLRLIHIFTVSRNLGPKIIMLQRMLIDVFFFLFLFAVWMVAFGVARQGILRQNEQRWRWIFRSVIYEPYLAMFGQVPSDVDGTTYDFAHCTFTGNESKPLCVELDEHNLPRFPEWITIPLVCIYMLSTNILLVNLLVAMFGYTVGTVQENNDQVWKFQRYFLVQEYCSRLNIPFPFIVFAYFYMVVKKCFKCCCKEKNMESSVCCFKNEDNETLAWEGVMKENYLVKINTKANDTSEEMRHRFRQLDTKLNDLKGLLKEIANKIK

Consider `CC(=O)c1ccc(NC(=O)N[C@@H](c2ccc(C(F)(F)F)cc2)c2ncccc2C(F)(F)F)cc1` [Example 138, (S)-1-(4-acetylphenyl)-3-((4-(trifluoro-methyl)-phenyl)(3-(trifluoro-methyl)-pyridin-2-yl)-methyl)urea (2,2,2-trifluoro-acetate)], for which the IC50 stood at 3720 nM.

As to `O=C(Nc1ccc(F)c([N+](=O)[O-])c1)N[C@@H](c1ccc(C(F)(F)F)cc1)c1ncccc1C(F)(F)F` [Example 139, (S)-1-(4-fluoro-3-nitrophenyl)-3-((4-(trifluoro-methyl)-phenyl)(3-(trifluoro-methyl)-pyridin-2-yl)-methyl)urea (2,2,2-trifluoro-acetate)], the IC50 was found to be 1310 nM.

Consider `Cc1ccc(NC(=O)N[C@@H](c2ccc(C(F)(F)F)cc2)c2ncccc2C(F)(F)F)cc1[N+](=O)[O-]` [Example 140, (S)-1-(4-methyl-3-nitrophenyl)-3-((4-(trifluoro-methyl)-phenyl)(3-(trifluoro-methyl)-pyridin-2-yl)-methyl)urea (2,2,2-trifluoro-acetate)], for which the IC50 was found to be 1300 nM.

Regarding `COc1cc([N+](=O)[O-])ccc1NC(=O)N[C@@H](c1ccc(C(F)(F)F)cc1)c1ncccc1C(F)(F)F` [Example 141, (S)-1-(2-methoxy-4-nitrophenyl)-3-((4-(trifluoro-methyl)-phenyl)(3-(trifluoro-methyl)-pyridin-2-yl)-methyl)urea (2,2,2-trifluoro-acetate)], the half-maximal inhibitory concentration (IC50) is 360 nM.

For `Cc1c(NC(=O)N[C@@H](c2ccc(C(F)(F)F)cc2)c2ncccc2C(F)(F)F)cccc1[N+](=O)[O-]` [Example 142, (S)-1-(2-methyl-3-nitrophenyl)-3-((4-(trifluoro-methyl)-phenyl)(3-(trifluoro-methyl)-pyridin-2-yl)-methyl)urea (2,2,2-trifluoro-acetate)], the half-maximal inhibitory concentration (IC50) was determined as 2180 nM.

As to `Cc1ccc([N+](=O)[O-])c(NC(=O)N[C@@H](c2ccc(C(F)(F)F)cc2)c2ncccc2C(F)(F)F)c1` [Example 143, (S)-1-(5-methyl-2-nitrophenyl)-3-((4-(trifluoro-methyl)-phenyl)(3-(trifluoro-methyl)-pyridin-2-yl)-methyl)urea (2,2,2-trifluoro-acetate)], the IC50 was determined as 1300 nM.

With `O=C(NCc1ccc(F)cc1)N[C@@H](c1ccc(C(F)(F)F)cc1)c1ncccc1C(F)(F)F` [Example 144, (S)-1-(4-fluorobenzyl)-3-((4-(trifluoro-methyl)-phenyl)(3-(trifluoro-methyl)-pyridin-2-yl)-methyl)urea (2,2,2-trifluoro-acetate)], the IC50 was 541 nM.

Regarding `Cc1ccccc1NC(=O)N[C@@H](c1ccc(C(F)(F)F)cc1)c1ncccc1C(F)(F)F` [Example 145, (S)-1-(o-tolyl)-3-((4-(trifluoro-methyl)-phenyl)(3-(trifluoro-methyl)-pyridin-2-yl)-methyl)urea (2,2,2-trifluoro-acetate)], the IC50 came to 474 nM.

Take `Cc1ccc(F)c(NC(=O)N[C@@H](c2ccc(C(F)(F)F)cc2)c2ncccc2C(F)(F)F)c1` [Example 146, (S)-1-(2-fluoro-5-methylphenyl)-3-((4-(trifluoro-methyl)-phenyl)(3-(trifluoro-methyl)-pyridin-2-yl)-methyl)urea (2,2,2-trifluoro-acetate)]: the IC50 came to 3770 nM.

`Cc1cccc(CNC(=O)N[C@@H](c2ccc(C(F)(F)F)cc2)c2ncccc2C(F)(F)F)c1` [Example 147, (S)-1-(3-methylbenzyl)-3-((4-(trifluoro-methyl)-phenyl)(3-(trifluoro-methyl)-pyridin-2-yl)-methyl)urea (2,2,2-trifluoro-acetate)]: the IC50 is 3830 nM.

`O=C(Nc1ccc(-c2noc(=O)[nH]2)cc1)N[C@@H](c1ccc(C(F)(F)F)cc1)c1ncccc1C(F)(F)F` [Example 148, (S)-1-(4-(5-Oxo-4,5-dihydro-1,2,4-oxadiazol-3-yl)phenyl)-3-((4-(trifluoromethyl)phenyl)(3-(trifluoromethyl)pyridin-2-yl)methyl)urea]: the concentration for half-maximal inhibition (IC50) amounted to 1610 nM.

As to `O=C1Cc2cc(NC(=O)N[C@@H](c3ccc(C(F)(F)F)cc3)c3ncccc3F)ccc2N1` [Example 149], the half-maximal inhibitory concentration (IC50) was found to be 55 nM.

Regarding `CC#Cc1cccnc1[C@@H](NC(=O)N[C@@H](C)C(F)(F)F)c1ccc(C(F)(F)F)cc1` [Example 150, 1-((S)-(3-(prop-1-yn-1-yl)pyridin-2-yl)(4-(trifluoro-methyl)-phenyl)-methyl)-3-((S)-1,1,1-trifluoro-propan-2-yl)-urea], the half-maximal inhibitory concentration (IC50) turned out to be 48 nM.

In the case of `C[C@@H](NC(=O)N[C@@H](c1ccc(C(F)(F)F)c(F)c1)c1ncccc1C(F)(F)F)C(F)(F)F` [Example 152, 1-((S)-(3-fluoro-4-(trifluoro-methyl)-phenyl)(3-(trifluoro-methyl)-pyridin-2-yl)-methyl)-3-((R)-1,1,1-trifluoro-propan-2-yl)-urea (2,2,2-trifluoro-acetate)], the half-inhibitory concentration (IC50) was found to be 70 nM.

`C[C@H](NC(=O)N[C@@H](c1ccc(C(F)(F)F)cc1)c1ccccc1Br)C(F)(F)F` [Example 154, 1-((S)-(2-bromophenyl) (4-(trifluoro-methyl)-phenyl)-methyl)-3-((S)-1,1,1-trifluoro-propan-2-yl)-urea]: the IC50 came to 900 nM.

For `O=C(Nc1cncnc1)N[C@@H](c1ccc(C(F)(F)F)c(F)c1)c1ncccc1C(F)(F)F` [Example 155, (S)-1-((3-fluoro-4-(trifluoro-methyl)-phenyl)(3-(trifluoro-methyl)-pyridin-2-yl)-methyl)-3-(pyrimidin-5-yl)urea (2,2,2-trifluoro-acetate)], the concentration for half-maximal inhibition (IC50) was 62 nM.

Regarding `C=CCc1cccnc1[C@@H](NC(=O)N[C@@H](C)C(F)(F)F)c1ccc(C(F)(F)F)cc1` [Example 158, 1-((S)-(3-allylpyridin-2-yl)(4-(trifluoro-methyl)-phenyl)-methyl)-3-((S)-1,1,1-trifluoro-propan-2-yl)-urea], the half-maximal inhibitory concentration (IC50) is 28 nM.

As to `COc1ncc(NC(=O)N[C@@H](c2ccc(C(F)(F)F)cc2)c2ncccc2C(F)(F)F)cn1` [Example 159, (S)-1-(2-Methoxypyrimidin-5-yl)-3-((4-(trifluoromethyl)-phenyl)(3-(trifluoromethyl)pyridin-2-yl)methyl)urea], the IC50 was 407 nM.

Take `COc1ncc(NC(=O)N[C@@H](c2ccc(C(F)(F)F)cc2)c2ncccc2F)cn1` [Example 160, (S)-1-((3-fluoropyridin-2-yl)(4-(trifluoro-methyl)-phenyl)-methyl)-3-(2-methoxy-pyrimidin-5-yl)urea]: the IC50 was 1650 nM.

For the compound `Cn1ccc(NC(=O)N[C@@H](c2ccc(C(F)(F)F)cc2)c2ncccc2F)cc1=O` [Example 161, (S)-1-((3-fluoropyridin-2-yl)(4-(trifluoro-methyl)-phenyl)-methyl)-3-(1-methyl-2-oxo-1,2-dihydropyridin-4-yl)urea], the concentration for half-maximal inhibition (IC50) is 1250 nM.

As for `Cn1cc(NC(=O)N[C@@H](c2ccc(C(F)(F)F)cc2)c2ncccc2F)ccc1=O` [Example 162, (S)-1-((3-fluoropyridin-2-yl)(4-(trifluoro-methyl)-phenyl)-methyl)-3-(1-methyl-6-oxo-1,6-dihydropyridin-3-yl)urea], the IC50 amounted to 491 nM.

`O=C(Nc1ccc[nH]c1=O)N[C@@H](c1ccc(C(F)(F)F)cc1)c1ncccc1F` [Example 163, (S)-1-((3-fluoropyridin-2-yl)(4-(trifluoro-methyl)-phenyl)-methyl)-3-(2-oxo-1,2-dihydropyridin-3-yl)urea]: the IC50 is 76 nM.

Turning to `O=C(Nc1cc[nH]c(=O)c1)N[C@@H](c1ccc(C(F)(F)F)cc1)c1ncccc1F` [Example 164, (S)-1-((3-fluoropyridin-2-yl)(4-(trifluoro-methyl)-phenyl)-methyl)-3-(2-oxo-1,2-dihydropyridin-4-yl)urea], the IC50 was 2880 nM.

Take `O=C(Nc1ccc(=O)[nH]c1)N[C@@H](c1ccc(C(F)(F)F)cc1)c1ncccc1F` [Example 165, (S)-1-((3-fluoropyridin-2-yl)(4-(trifluoro-methyl)-phenyl)-methyl)-3-(6-oxo-1,6-dihydropyridin-3-yl)urea]: the IC50 stood at 3210 nM.

Regarding `O=C1Cc2ccc(NC(=O)N[C@@H](c3ccc(C(F)(F)F)cc3)c3ncccc3F)cc2N1` [Example 166, (S)-1-((3-fluoropyridin-2-yl)(4-(trifluoro-methyl)-phenyl)-methyl)-3-(2-oxoindolin-6-yl)urea], the half-inhibitory concentration (IC50) came to 86 nM.

In the case of `O=C(N[C@@H](c1ccc(C(F)(F)F)c(F)c1)c1ncccc1C(F)(F)F)N1CCOCC1` [Example 167, (S)—N-((3-Fluoro-4-(trifluoromethyl)phenyl)(3-(trifluoromethyl)pyridin-2-yl)methyl)morpholine-4-carboxamide 2,2,2-trifluoroacetate], the IC50 stood at 328 nM.

Take `CCCc1cccnc1[C@@H](NC(=O)Nc1cccnc1)c1ccc(C(F)(F)F)cc1` [Example 168, (S)-1-((3-Propylpyridin-2-yl)(4-(trifluoromethyl)phenyl)-methyl)-3-(pyridin-3-yl)urea]: the half-inhibitory concentration (IC50) was 67 nM.

For the compound `CC(C)(C)OC(=O)N[C@@H](c1ccc(C(F)(F)F)cc1)c1ccccn1` [Example 169, (S)-tert-Butyl(pyridin-2-yl(4-(trifluoromethyl)phenyl)methyl)-carbamate 2,2,2-trifluoroacetate], the IC50 was 663 nM.

`CCOC(=O)N[C@@H](c1ccc(C(F)(F)F)cc1)c1ncccc1C(F)(F)F` [Example 170, (S)-Ethyl((4-(trifluoromethyl)phenyl)(3-(trifluoromethyl)-pyridin-2-yl)methyl)carbamate]: the IC50 stood at 147 nM.

As to `O=C(Nc1ccc(F)cc1)NC(c1ccccc1)c1ccc(C(F)(F)F)cc1` (stereo not shown) [Example 171, 1-(4-Fluorophenyl)-3-(phenyl(4-(trifluoromethyl)phenyl)-methyl)urea], the IC50 turned out to be 915 nM.

Turning to `O=C(N[C@@H](c1ccc(C(F)(F)F)cc1)c1ccccn1)OCc1ccccc1` [Example 172, (S)-Benzyl(pyridin-2-yl(4-(trifluoromethyl)phenyl)methyl)-carbamate 2,2,2-trifluoroacetate], the IC50 worked out at 360 nM.
